According to patent US12180178B2, “Heteroaryl azole compound and pest control agent” (NIPPON SODA CO., LTD., priority 2018, dated 2024):

System: Mythimna separata
Experiment: Test of Efficacy on Mythimna separata (test feed)
Assay type: in vivo
Settings: 1 μl of emulsion (I) (5% active ingredient) in 0.8 g artificial feed; second instar larvae; 25° C.; fifth day
Protocol: 5 parts of the heteroaryl azole compound of the present invention, 93.6 parts of dimethylformamide, and 1.4 parts of polyoxyethylene alkyl aryl ether were mixed and dissolved to prepare emulsion (I) containing 5% of the active ingredient. For a control, 98.5 parts of dimethylformamide and 1.5 parts of polyoxyethylene alkyl aryl ether were mixed and dissolved to prepare emulsion (II). An insecticidal rate was calculated according to the following expression: Insecticidal rate (%)=(The number of dead insects/The number of tested insects)×100 0.8 g of commercially available artificial feed (Insecta LFS, manufactured by Nosan Corp.) and 1 μl of the emulsion (I) were well mixed to obtain test feed. A plastic test container (capacity: 1.4 ml) was packed with 0.2 g of the test feed per treatment plot. Then, two second instar larvae of Mythimna separata were inoculated to each treatment plot. A plastic lid was put on the test container so as to prevent escape of the second instar larvae of Mythimna separata. The container was placed in a thermostat chamber of 25° C. On the fifth day, the insecticidal rate and the food intake were examined. The test was conducted in duplicate. The insecticidal rate and the food intake of a control plot were examined in the same way as in Test Example 1 except that the emulsion (I) was changed to the emulsion (II).

| Structure (SMILES) | insecticidal rate or food intake as compared with the control plot |
| --- | --- |
| CCS(=O)(=O)c1cc(C(F)(F)F)cnc1-c1ncn(/C=C(\F)C(F)(F)C(F)(F)F)c1C [a-4] | insecticidal rate of 100% for Mythimna separata or a food intake of 10% or less as compared with the control plot |
| CCS(=O)(=O)c1cc(C(F)(F)F)cnc1-c1ncn(CC(F)(F)C(F)(F)C(F)(F)F)c1C [a-5] | insecticidal rate of 100% for Mythimna separata or a food intake of 10% or less as compared with the control plot |
| CCS(=O)(=O)c1cc(C2CC2)cnc1-c1ncn(/C=C(\F)C(F)(F)F)c1C [a-14] | insecticidal rate of 100% for Mythimna separata or a food intake of 10% or less as compared with the control plot |
| CCS(=O)(=O)c1cc(-c2ncccn2)cnc1-c1ncn(CC(F)(F)C(F)(F)C(F)(F)C(F)F)c1C [a-15] | insecticidal rate of 100% for Mythimna separata or a food intake of 10% or less as compared with the control plot |
| CCS(=O)(=O)c1cc(-c2cc(F)cc(F)c2)cnc1-c1ncn(/C=C(\F)C(F)(F)C(F)(F)F)n1 [b-3] | insecticidal rate of 100% for Mythimna separata or a food intake of 10% or less as compared with the control plot |
| CCS(=O)(=O)c1cc(C2CC2)cnc1-c1ncn(/C=C(\F)C(F)(F)C(F)(F)F)n1 [b-10] | insecticidal rate of 100% for Mythimna separata or a food intake of 10% or less as compared with the control plot |
| CCS(=O)(=O)c1cc(-c2ncccn2)cnc1-c1ncn(/C=C(\F)C(F)(F)C(F)(F)F)n1 [b-12] | insecticidal rate of 100% for Mythimna separata or a food intake of 10% or less as compared with the control plot |
| CCS(=O)(=O)c1cc(Br)cnc1-c1ncn(/C=C(\F)C(F)(F)C(F)(F)C(F)F)n1 [b-20] | insecticidal rate of 100% for Mythimna separata or a food intake of 10% or less as compared with the control plot |
| CCS(=O)(=O)c1cc(C2(C)CC2)cnc1-c1ncn(/C=C(\F)C(F)(F)C(F)(F)C(F)(F)F)n1 [b-22] | insecticidal rate of 100% for Mythimna separata or a food intake of 10% or less as compared with the control plot |
| CCS(=O)(=O)c1cc(-c2ccccn2)cnc1-c1ncn(CC(F)(F)C(F)(F)F)c1C [c-1, 5′-(ethylsulfonyl)-6′-(5-methyl-1-(2,2,3,3,3-pentafluoropropyl)-1H-imidazol-4-yl)-2,3′-bipyridine] | insecticidal rate of 100% for Mythimna separata or a food intake of 10% or less as compared with the control plot |
| CCS(=O)(=O)c1cc(-c2ncccn2)cnc1-c1ncn(CC(F)(F)C(F)(F)F)c1C [c-2] | insecticidal rate of 100% for Mythimna separata or a food intake of 10% or less as compared with the control plot |
| CCS(=O)(=O)c1cc(C2CC2)cnc1-c1ncn(-c2ccc(SC(F)(F)F)cc2)n1 [d-9] | insecticidal rate of 100% for Mythimna separata or a food intake of 10% or less as compared with the control plot |
| C=C(C)c1cnc(-c2ncn(-c3ccc(OC(F)(F)F)cc3)n2)c(S(=O)(=O)CC)c1 [d-13] | insecticidal rate of 100% for Mythimna separata or a food intake of 10% or less as compared with the control plot |

System: Aphis craccivora
Experiment: Test of Efficacy on Aphis craccivora (spray on black-eyed peas)
Assay type: in vivo
Settings: 96 h, 125 ppm, sprayed to black-eyed peas, nymphs, after 4 days, read-out: insecticidal rate
Protocol: 5 parts of the heteroaryl azole compound of the present invention, 93.6 parts of dimethylformamide, and 1.4 parts of polyoxyethylene alkyl aryl ether were mixed and dissolved to prepare emulsion (I) containing 5% of the active ingredient.
An insecticidal rate was calculated according to the following expression: Insecticidal rate (%)=(The number of dead insects/The number of tested insects)×100
Seedlings of black-eyed peas were raised in 10-cm pots. Aphis craccivora nymphs were inoculated onto primary leaves. The emulsion (I) was diluted with water such that the concentration of the compound of the present invention was 125 ppm. The dilution was sprayed to the black-eyed peas parasitized by the Aphis craccivora nymphs. The black-eyed peas were placed in a thermostat chamber having a temperature of 25° C. and a humidity of 60%. Life and death of Aphis craccivora were determined after 4 days from the spraying, and the insecticidal rate was calculated. The test was conducted in duplicate.

| Structure (SMILES) | pest or weed control at 125 ppm |
| --- | --- |
| CCS(=O)(=O)c1cc(-c2ccccn2)cnc1-c1ncn(CC(F)(F)C(F)(F)F)c1C [c-1, 5′-(ethylsulfonyl)-6′-(5-methyl-1-(2,2,3,3,3-pentafluoropropyl)-1H-imidazol-4-yl)-2,3′-bipyridine] | ≥ 80% |
| CCS(=O)(=O)c1cc(-c2ncccn2)cnc1-c1ncn(CC(F)(F)C(F)(F)F)c1C [c-2] | ≥ 80% |
| CCS(=O)(=O)c1cc(C2CC2)cnc1-c1ncn(CC(F)(F)C(F)(F)F)c1C [c-3] | ≥ 80% |
| CCS(=O)(=O)c1cc(Br)cnc1-c1ncn(CC(F)(F)C(F)(F)F)c1C [c-4] | ≥ 80% |
| CCS(=O)(=O)c1cnc(-c2ncccn2)nc1-c1ncn(-c2ccc(C(F)(F)C(F)(F)F)cc2)n1 [d-18] | ≥ 80% |
| CCS(=O)(=O)c1ccc(S(=O)(=O)CC)c(-c2cn(-c3ccc(OC(F)(F)F)cc3)cn2)n1 [d-21] | ≥ 80% |

Same assay, conditions: 96 h, read-out: insecticidal rate

| Structure (SMILES) | pest or weed control at 125 ppm |
| --- | --- |
| CCS(=O)(=O)c1cc(Br)cnc1-c1ncn(CC(F)(F)C(F)(F)C(F)(F)F)c1C [c-7] | ≥ 80% |
